Reference: US10329302B2, “Bicyclic-fused heteroaryl or aryl compounds” (Pfizer Inc., priority 2014, dated 2019)
Where two headings read alike, the source gives them in different places.

How the values were obtained:
[1] = target: human IRAK4 FL (Full Length) (Homo sapiens (Human), UniProt Q9NWZ3); assay: IRAK4 Enzymatic DELFIA Assay, Protocol A; format: biochemical
[2] = test system: R848-induced TNFα production by human peripheral blood mononuclear cells (PBMCs); assay: R848 Induced TNFα in Human PBMC Assay; format: cell-based
[3] = human IRAK4 FL, 0.6 mM ATP (KM), read-out: IRAK4 DELFIA Protocol A IC50
[4] = Homo sapiens, PBMC, 3 h, read-out: R848-induced TNFa PBMC IC50 (nM)

Chain of human IRAK4 FL (Full Length) (Q9NWZ3 whole entry): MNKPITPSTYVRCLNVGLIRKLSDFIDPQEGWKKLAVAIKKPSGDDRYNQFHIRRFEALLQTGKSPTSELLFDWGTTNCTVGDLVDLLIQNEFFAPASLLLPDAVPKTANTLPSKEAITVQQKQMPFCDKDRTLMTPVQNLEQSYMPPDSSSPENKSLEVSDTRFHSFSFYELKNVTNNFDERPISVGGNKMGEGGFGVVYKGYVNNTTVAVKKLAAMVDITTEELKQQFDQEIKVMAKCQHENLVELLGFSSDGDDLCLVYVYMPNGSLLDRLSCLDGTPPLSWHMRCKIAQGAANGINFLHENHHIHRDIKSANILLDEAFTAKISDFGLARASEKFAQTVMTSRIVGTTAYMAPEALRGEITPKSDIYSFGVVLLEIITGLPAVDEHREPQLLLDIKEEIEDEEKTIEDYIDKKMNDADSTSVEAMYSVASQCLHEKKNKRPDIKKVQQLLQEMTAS

SMILES: COc1cc2c(OC[C@H]3C[C@@H](F)C(=O)N3)nccc2cc1C(N)=O [Example 275, 1-{[(2R,4R)-4-fluoro-5-oxopyrrolidin-2-yl]methoxy}-7-methoxyisoquinoline-6-carboxamide]
- IC50 [1, 3]: 119 nM
- IC50 [2, 4]: 5140 nM

SMILES: COc1cc2c(OC[C@H]3NC(=O)[C@@H](F)[C@H]3C)ccnc2cc1C(N)=O [Example 250, 4-{[(2S,3S,4S)-4-fluoro-3-methyl-5-oxopyrrolidin-2-yl]methoxy}-6-methoxyquinoline-7-carboxamide]
- IC50 [1, 3]: 0.6 nM
- IC50 [2, 4]: 144 nM

SMILES: COc1cc2c(OC[C@@H]3C[C@H](F)C(=O)N3)nccc2cc1C(N)=O [Example 252, 1-{[(2S,4S)-4-fluoro-5-oxopyrrolidin-2-yl]methoxy}-7-methoxyisoquinoline-6-carboxamide]
- IC50 [1, 3]: 0.9 nM
- IC50 [2, 4]: 40 nM

SMILES: COc1cc2c(OC[C@@H]3COC(=O)N3)cccc2cc1C(N)=O [Example 233, 3-methoxy-5-{[(4R)-2-oxo-1,3-oxazolidin-4-yl]methoxy}naphthalene-2-carboxamide]
- IC50 [1, 3]: 0.3 nM
- IC50 [2, 4]: 47 nM

SMILES: COc1cc2c(OC[C@H]3NC(=O)[C@@H]4C[C@H]34)ccnc2cc1C(N)=O [Example 326, 6-methoxy-4-{[(1S,2S,5R)-4-oxo-3-azabicyclo[3.1.0]hex-2-yl]methoxy}quinoline-7-carboxamide]
- IC50 [1, 3]: 1.2 nM
- IC50 [2, 4]: 1200 nM

SMILES: CC[C@@]1(F)C[C@@H](COc2ccnc3cc(C(N)=O)c(OC)cc23)NC1=O [Example 260, 4-{[(2S,4R)-4-ethyl-4-fluoro-5-oxopyrrolidin-2-yl]methoxy}-6-methoxyquinoline-7-carboxamide]
- IC50 [1, 3]: 202 nM
- IC50 [2, 4]: 6280 nM

SMILES: CC[C@@H]1[C@H](F)C(=O)N[C@@H]1COc1ccnc2cc(C(N)=O)c(OC)cc12 [Example 316, 4-{[(2S,3S,4S)-3-ethyl-4-fluoro-5-oxopyrrolidin-2-yl]methoxy}-6-methoxyquinoline-7-carboxamide]
- IC50 [1, 3]: 129 nM
- IC50 [2, 4]: 464 nM

SMILES: CC[C@@H]1CC(=O)N[C@@H]1COc1nccc2cc(C(N)=O)c(OC)c(F)c12 [Example 363, 1-{[(2S,3R)-3-ethyl-5-oxopyrrolidin-2-yl]methoxy}-8-fluoro-7-methoxyisoquinoline-6-carboxamide]
- IC50 [1, 3]: 11 nM
- IC50 [2, 4]: 110 nM

SMILES: CC(C)Oc1cc2c(OC[C@@H]3CCC(=O)N3)cccc2cc1C(N)=O [Example 114, 5-{[(2S)-5-oxopyrrolidin-2-yl]methoxy}-3-(propan-2-yloxy)naphthalene-2-carboxamide]
- IC50 [1, 3]: 0.7 nM
- IC50 [2, 4]: 33 nM

SMILES: CC[C@@H]1[C@H](N)C(=O)N[C@@H]1COc1nccc2cc(C(N)=O)c(OC)cc12 [Example 356, 1-{[(2S,3R,4S)-4-amino-3-ethyl-5-oxopyrrolidin-2-yl]methoxy}-7-methoxyisoquinoline-6-carboxamide]
- IC50 [1, 3]: 115 nM
- IC50 [2, 4]: 594 nM

SMILES: COc1cc2c(OC[C@H]3NC(=O)[C@]4(F)C[C@H]34)ccnc2cc1C(N)=O [Example 325, 4-{[(1R,2S,5S)-5-fluoro-4-oxo-3-azabicyclo[3.1.0]hex-2-yl]methoxy}-6-methoxyquinoline-7-carboxamide]
- IC50 [1, 3]: 0.4 nM
- IC50 [2, 4]: 87 nM

SMILES: COC[C@@H]1CC(=O)N[C@@H]1COc1nccc2cc(C(N)=O)c(OC)cc12 [Example 340, 7-methoxy-1-{[(2S,3R)-3-(methoxymethyl)-5-oxopyrrolidin-2-yl]methoxy}isoquinoline-6-carboxamide]
- IC50 [1, 3]: 12 nM
- IC50 [2, 4]: 456 nM

SMILES: COc1cc2c(OC[C@@H]3C[C@@H](F)C(=O)N3)nccc2cc1C(N)=O [Example 253, 1-{[(2S,4R)-4-fluoro-5-oxopyrrolidin-2-yl]methoxy}-7-methoxyisoquinoline-6-carboxamide]
- IC50 [1, 3]: 2.6 nM
- IC50 [2, 4]: 122 nM

SMILES: COc1cc2c(OC[C@H]3NC(=O)[C@@H]4[C@@H](CO)[C@@H]43)nccc2cc1C(N)=O [Example 327, 1-{[(1S,2S,5S)-6-(hydroxymethyl)-4-oxo-3-azabicyclo[3.1.0]hex-2-yl]methoxy}-7-methoxyisoquinoline-6-carboxamide]
- IC50 [1, 3]: 20 nM
- IC50 [2, 4]: 3310 nM

SMILES: CC(C)Oc1cc2c(OC[C@@H]3CC(C4(O)CCOCC4)C(=O)N3)nccc2cc1C(N)=O (stereo partly drawn) [Example 181, 1-{[(2S)-4-(4-hydroxytetrahydro-2H-pyran-4-yl)-5-oxopyrrolidin-2-yl]methoxy}-7-(propan-2-yloxy)isoquinoline-6-carboxamide]
- IC50 [1, 3]: 5.7 nM
- IC50 [2, 4]: 503 nM

SMILES: CC[C@@H]1[C@H](F)C(=O)N[C@@H]1COc1nccc2cc(C(N)=O)c(OC)c(F)c12 [Example 361, 1-{[(2S,3S,4S)-3-ethyl-4-fluoro-5-oxopyrrolidin-2-yl]methoxy}-8-fluoro-7-methoxyisoquinoline-6-carboxamide]
- IC50 [1, 3]: 4.8 nM
- IC50 [2, 4]: 27 nM

SMILES: COc1cc2c(OC[C@@H]3C[C@H](OC)C(=O)N3)cccc2cc1C(N)=O [Example 231, 3-methoxy-5-{[(2S,4S)-4-methoxy-5-oxopyrrolidin-2-yl]methoxy}naphthalene-2-carboxamide]
- IC50 [1]: 67 nM
- IC50 [2, 4]: 509 nM

SMILES: CCOc1cc2c(OC[C@H]3NC(=O)[C@@H](F)[C@H]3C)ccnc2cc1C(N)=O [Example 279, 6-ethoxy-4-{[(2S,3S,4S)-4-fluoro-3-methyl-5-oxopyrrolidin-2-yl]methoxy}quinoline-7-carboxamide]
- IC50 [1, 3]: 1.2 nM
- IC50 [2, 4]: 212 nM

SMILES: COc1cc2c(OC[C@H]3NC(=O)C[C@H]3CF)nccc2cc1C(N)=O [Example 366, 1-{[(2S,3R)-3-(fluoromethyl)-5-oxopyrrolidin-2-yl]methoxy}-7-methoxyisoquinoline-6-carboxamide]
- IC50 [1]: 6.1 nM
- IC50 [2, 4]: 91 nM

SMILES: COc1cc2c(OC[C@@H]3C[C@](C)(F)C(=O)N3)ccnc2cc1C(N)=O [Example 268, 4-{[(2S,4S)-4-fluoro-4-methyl-5-oxopyrrolidin-2-yl]methoxy}-6-methoxyquinoline-7-carboxamide]
- IC50 [1, 3]: 1.4 nM
- IC50 [2, 4]: 175 nM

SMILES: COc1cc2c(OC[C@@H]3CC4(CC4)C(=O)N3)nccc2cc1C(N)=O [Example 245, 7-methoxy-1-{[(6S)-4-oxo-5-azaspiro[2.4]hept-6-yl]methoxy}isoquinoline-6-carboxamide]
- IC50 [1, 3]: 29 nM
- IC50 [2, 4]: 529 nM

SMILES: COc1cc2c(OC[C@@H]3C[C@@H](C)C(=O)N3)nccc2cc1C(N)=O [Example 243, 7-methoxy-1-{[(2S,4R)-4-methyl-5-oxopyrrolidin-2-yl]methoxy}isoquinoline-6-carboxamide]
- IC50 [1, 3]: 205 nM
- IC50 [2, 4]: 713 nM

SMILES: CC(C)Oc1cc2c(OC[C@@H]3C[C@@](F)(CO)C(=O)N3)nccc2cc1C(N)=O [Example 164, 1-{[(2S,4R)-4-fluoro-4-(hydroxymethyl)-5-oxopyrrolidin-2-yl]methoxy}-7-(propan-2-yloxy)isoquinoline-6-carboxamide]
- IC50 [1, 3]: 1.7 nM
- IC50 [2, 4]: 116 nM

SMILES: COc1cc2c(OC[C@@H]3C[C@@](F)(CO)C(=O)N3)nccc2cc1C(N)=O [Example 205, 1-{[(2S,4R)-4-fluoro-4-(hydroxymethyl)-5-oxopyrrolidin-2-yl]methoxy}-7-methoxyisoquinoline-6-carboxamide]
- IC50 [1, 3]: 3.6 nM
- IC50 [2, 4]: 380 nM

SMILES: COc1cc2c(OC[C@H]3NC(=O)O[C@H]3C)cccc2cc1C(N)=O [Example 234, 3-methoxy-5-{[(4R,5S)-5-methyl-2-oxo-1,3-oxazolidin-4-yl]methoxy}naphthalene-2-carboxamide]
- IC50 [1, 3]: 1.9 nM
- IC50 [2, 4]: 45 nM

SMILES: C=C=COc1cc2c(OC[C@@H]3CCC(=O)N3)nccc2cc1C(N)=O [Example 319, 1-{[(2S)-5-oxopyrrolidin-2-yl]methoxy}-7-(propadienyloxy)isoquinoline-6-carboxamide]
- IC50 [1, 3]: 1950 nM
- IC50 [2, 4]: 11000 nM

SMILES: CCOc1cc2c(OC[C@H]3NC(=O)[C@@H](F)[C@H]3CC)nccc2cc1C(N)=O [Example 359, 7-ethoxy-1-{[(2S,3S,4S)-3-ethyl-4-fluoro-5-oxopyrrolidin-2-yl]methoxy}isoquinoline-6-carboxamide]
- IC50 [1, 3]: 0.4 nM
- IC50 [2, 4]: 3.9 nM

SMILES: COc1cc2c(OC[C@H]3NC(=O)C[C@H]3C)cccc2cc1C(N)=O [Example 216, 3-methoxy-5-{[(2S,3R)-3-methyl-5-oxopyrrolidin-2-yl]methoxy}naphthalene-2-carboxamide]
- IC50 [1, 3]: 0.4 nM
- IC50 [2, 4]: 27 nM

SMILES: COc1cc2c(OC[C@H]3NC(=O)[C@H]4C3[C@H]4F)nccc2cc1C(N)=O (stereo in doubt) [Example 334, 1-(((1R,2S,5R,6R)-6-fluoro-4-oxo-3-azabicyclo[3.1.0]hexan-2-yl)methoxy)-7-methoxyisoquinoline-6-carboxamide]
- IC50 [1, 3]: 4.2 nM
- IC50 [2, 4]: 1770 nM

SMILES: CC[C@@H]1[C@H](F)C(=O)N[C@@H]1COc1nccc2cc(C(N)=O)c(OCCOC)cc12 [Example 339, 1-{[(2S,3S,4S)-3-ethyl-4-fluoro-5-oxopyrrolidin-2-yl]methoxy}-7-(2-methoxyethoxy)isoquinoline-6-carboxamide]
- IC50 [1, 3]: 90 nM
- IC50 [2, 4]: 269 nM

SMILES: CC(C)Oc1cc2c(OC[C@H]3NC(=O)C[C@H]3C)nccc2cc1C(N)=O [Example 219, 1-{[(2S,3R)-3-methyl-5-oxopyrrolidin-2-yl]methoxy}-7-(propan-2-yloxy)isoquinoline-6-carboxamide]
- IC50 [1, 3]: 1.7 nM
- IC50 [2, 4]: 65 nM

SMILES: COc1cc2c(OC[C@@H]3C[C@@H](C4CCOCC4)C(=O)N3)nccc2cc1C(N)=O [Example 286, 7-methoxy-1-{[(2S,4S)-5-oxo-4-(tetrahydro-2H-pyran-4-yl)pyrrolidin-2-yl]methoxy}isoquinoline-6-carboxamide]
- IC50 [2, 4]: 7020 nM

SMILES: CC[C@@H]1[C@H](F)C(=O)NC1(O)COc1nccc2cc(C(N)=O)c(OC)cc12 (stereo partly drawn) [Example 197, 1-{[(3S,4S)-3-ethyl-4-fluoro-2-hydroxy-5-oxopyrrolidin-2-yl]methoxy}-7-methoxyisoquinoline-6-carboxamide]
- IC50 ([2]; human PBMC, absence of serum, 3 hours, read-out: R848-induced TNFa PBMC IC50): 71 nM
